This passage reports Ki results from patent US8609892B2 (Eli Lilly and Company, priority 2004, dated 2013).

For this test, the target named is cloned human glucagon receptor (Homo sapiens (Human), UniProt P47871). As to the kind of experiment: Glucagon Receptor (hGlucR) Binding Assay. The settings on record: I-125 glucagon competition, SPA, 293HEK membranes, Cheng-Prusoff.
cloned human glucagon receptor, sequence (P47871 26-477): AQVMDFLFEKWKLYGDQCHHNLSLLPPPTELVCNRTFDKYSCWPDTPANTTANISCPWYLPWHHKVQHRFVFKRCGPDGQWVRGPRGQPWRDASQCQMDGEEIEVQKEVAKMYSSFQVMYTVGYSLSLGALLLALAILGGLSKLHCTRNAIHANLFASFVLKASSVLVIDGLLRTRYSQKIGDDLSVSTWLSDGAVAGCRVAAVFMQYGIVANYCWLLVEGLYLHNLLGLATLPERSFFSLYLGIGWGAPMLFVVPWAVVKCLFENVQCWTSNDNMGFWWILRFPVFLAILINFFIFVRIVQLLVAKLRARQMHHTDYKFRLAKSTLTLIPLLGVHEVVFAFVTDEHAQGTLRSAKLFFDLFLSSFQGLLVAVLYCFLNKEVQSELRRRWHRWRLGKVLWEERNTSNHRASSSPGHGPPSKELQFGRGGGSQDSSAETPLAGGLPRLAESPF

Method: This plasmid DNA was transfected into 293 HEK cells and selected with 200 ug/mL Hygromycin.
Crude plasma membranes are prepared using cells from suspension culture. The cells are lysed on ice in hypotonic buffer containing 25 mM Tris HCL, pH 7.5, 1 mM MgCl2, DNAse1, 20 u/mL, and Roche Complete Inhibitors-without EDTA. The cell suspension is homogenized with a glass dounce homogenizer using a Teflon pestle for 25 strokes. The homogenate is centrifuged at 4 degrees C. at 1800×g for 15 mins. The supernate is collected and the pellet is resuspended in hypotonic buffer and rehomogenized. The mixture is centrifuged at 1800×g for 15 mins. The second supernate is combined with the first supernate. The combined supernates are recentrifuged at 1800×g for 15 mins to clarify. The clarified supernate is transferred to high speed tubes and centrifuged at 25000×g for 30 minutes at 4 degrees C. The membrane pellet is resuspended in homogenization buffer and stored as frozen aliquots at −80 degree C. freezer until needed.
The specific activity is 2200 Ci/mmol.
The binding buffer contains 25 mM Hepes, pH 7.4, 2.5 mM CaCl2, 1 mM MgCl2, 0.1% fatty acid free BSA, (ICN), 0.003% tween-20, and Roche Complete Inhibitors without EDTA. […] Test compounds are dissolved in DMSO and serially diluted in DMSO. […] Plates are read with a MicroBeta after 14 hours of settling time at room temp. […]

Broadly, the Ki is a dissociation constant, usually derived from enzyme kinetics or from competition with a known ligand. A lower Ki goes with tighter binding. Consider `CCCC(Oc1ccc(-c2ccc(CC(C)C)cc2)nc1)c1ccc(C(=O)NCCC(=O)O)cc1` (centres unmarked), for which the Ki amounted to 0.254 µM.

In the case of `Cc1ccc(-c2ccc(SC(CC(C)C)c3ccc(C(=O)NCCC(=O)O)cc3)cc2)cc1C` (centres unmarked), the Ki was found to be 0.265 µM.
